Blank lines part the entries; values can stand above or below the compound they belong to.
What was measured:
[1] = target: p38 MAP kinase (Homo sapiens, UniProt Q16539); experiment: P38 MAP kinase binding assay (fluorescence competition with SKF 86002); conditions: time-dependent if the IC50 values decrease with the reaction time (more than two-fold in four hours)
Procedure: The reaction was initiated by addition of the enzyme. […] By comparison of rfu (relative fluorescence unit) values with that of a control (in the absence of an inhibitor), the percentage of inhibition at each concentration of the inhibitor was calculated. IC50 value for the inhibitor was calculated from the % inhibition values obtained at a range of concentrations of the inhibitor using Prism. When time-dependent inhibition was assessed, the plate was read at multiple reaction times such as 0.5, 1, 2, 3, 4 and 6 hours. The IC50 values were calculated at the each time point. An inhibition was assigned as time-dependent if the IC50 values decrease with the reaction time (more than two-fold in four hours).

[2] = tested on: TNF-alpha release from human peripheral blood mononuclear leukocytes; experiment: Human peripheral blood mononuclear leukocyte cell assay (LPS-induced TNF-alpha release, ELISA); type: cell-based; conditions: 25 ng/mL LPS, 16 hours, read-out: IC50, uM (inhibition of TNF-alpha release)
Procedure: The quantity of LPS-induced tumor necrosis factor-alpha (TNF-alpha) cytokine release is measured by a commercially available Enzyme-Linked Immunosorbent Assay (ELISA) kit. Test compounds are evaluated for their ability to inhibit TNF-alpha release.

[3] = target: T1, phospho p-38 alpha kinase (Homo sapiens, UniProt Q16539); experiment: P-38 alpha kinase assay (spectrophotometric, pyruvate kinase/lactate dehydrogenase coupled); type: biochemical; conditions: Table 5; for IC50: assay not named, read-out: uM
T1 construct: purchased Panvera

[4] = target: phosphorylated p-38-alpha kinase (Homo sapiens, UniProt Q16539); experiment: P-38 alpha kinase assay P1; type: biochemical; conditions: Method P1; for IC50: 2 h pre-incubation before ATP; for Results, % @ concentration μM: @ 1.0 μM
[5] = target: T2, B-Raf(V599E) kinase (Homo sapiens, UniProt P15056, V600E); experiment: biochemical; conditions: for IC50: Method B2, construct 2; for inhibition at 10 µM / inhibition at 1 µM: read-out: Results, % @ concentration μM
Procedure: (§1) The test compounds were incubated with the reaction mixture at 30° C. for 2 h. […] The reaction rate was calculated using the 1.5 h to 2.5 h time frame. […] IC50 values were calculated from a series of percent inhibition values determined at a range of inhibitor concentrations using software routines as implemented in the GraphPad Prism software package.
Same as assay B1 except that (1) construct 2 was employed at a nominal concentration of 2 nM (2) the reaction was pre-incubated at 30° C. for 1 h prior to initiation with ATP (3) a reading time frame of 0.5 h to 1.5 h.
Target sequence in this assay (P15056 433-726 V600E): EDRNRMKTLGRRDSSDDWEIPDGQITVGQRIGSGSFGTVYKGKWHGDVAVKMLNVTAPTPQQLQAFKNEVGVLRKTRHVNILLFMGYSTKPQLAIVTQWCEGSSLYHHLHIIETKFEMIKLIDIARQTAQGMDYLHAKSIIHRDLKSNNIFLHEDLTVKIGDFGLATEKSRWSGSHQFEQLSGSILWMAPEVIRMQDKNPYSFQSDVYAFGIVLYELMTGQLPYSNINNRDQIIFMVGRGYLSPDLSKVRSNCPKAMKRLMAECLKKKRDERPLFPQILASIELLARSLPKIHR

[6] = target: T3, KDR kinase (Homo sapiens, UniProt P35968, DEL940-989/E990V); experiment: KDR kinase assay K1; type: biochemical; conditions: read-out: Results, % @ concentration μM, Method K1; @ 10 μM
Procedure: (§2) IC50 values were calculated from a series of percent inhibition values determined at a range of inhibitor concentrations using software routines as implemented in the GraphPad Prism software package.

[7] = target: T4, Abl kinase (Homo sapiens, UniProt P00519); experiment: Abl kinase assay A1; type: biochemical; conditions: read-out: Results, % @ concentration μM, Method A1; @ 1 μM
T4 sequence (P00519 229-512): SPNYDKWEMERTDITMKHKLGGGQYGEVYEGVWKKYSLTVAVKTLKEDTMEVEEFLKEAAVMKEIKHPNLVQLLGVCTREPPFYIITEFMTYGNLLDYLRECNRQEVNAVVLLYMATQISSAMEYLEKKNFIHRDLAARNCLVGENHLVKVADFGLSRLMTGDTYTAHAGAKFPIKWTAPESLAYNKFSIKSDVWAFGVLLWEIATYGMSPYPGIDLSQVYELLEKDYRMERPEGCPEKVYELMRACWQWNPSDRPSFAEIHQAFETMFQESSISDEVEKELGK
Procedure: as §2

[8] = target: T3, KDR kinase; experiment: KDR kinase assay K2
[9] = target: T2, B-Raf(V599E) kinase; experiment: B-Raf(V599E) kinase assay B1; type: biochemical; conditions: Method B1; construct 1
Procedure: as §1
Target sequence in this assay (P15056 with tags, fused parts or gaps V600E): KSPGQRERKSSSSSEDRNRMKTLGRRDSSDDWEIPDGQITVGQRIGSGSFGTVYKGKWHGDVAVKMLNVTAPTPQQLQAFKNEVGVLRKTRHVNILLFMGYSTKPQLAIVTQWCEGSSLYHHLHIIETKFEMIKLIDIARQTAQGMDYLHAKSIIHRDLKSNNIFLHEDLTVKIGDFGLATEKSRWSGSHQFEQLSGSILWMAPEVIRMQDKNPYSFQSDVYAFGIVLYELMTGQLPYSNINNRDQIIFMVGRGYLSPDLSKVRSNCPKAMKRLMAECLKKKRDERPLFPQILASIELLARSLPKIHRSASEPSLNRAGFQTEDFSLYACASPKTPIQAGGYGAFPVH

[10] = target: T4, Abl kinase; experiment: Abl kinase assay A2; type: biochemical; conditions: Method A2; 2 h pre-incubation, 0.5 mM ATP
Procedure: as §2

Chain of phosphorylated p-38-alpha kinase (Q16539 1-360 isoform Q16539-2): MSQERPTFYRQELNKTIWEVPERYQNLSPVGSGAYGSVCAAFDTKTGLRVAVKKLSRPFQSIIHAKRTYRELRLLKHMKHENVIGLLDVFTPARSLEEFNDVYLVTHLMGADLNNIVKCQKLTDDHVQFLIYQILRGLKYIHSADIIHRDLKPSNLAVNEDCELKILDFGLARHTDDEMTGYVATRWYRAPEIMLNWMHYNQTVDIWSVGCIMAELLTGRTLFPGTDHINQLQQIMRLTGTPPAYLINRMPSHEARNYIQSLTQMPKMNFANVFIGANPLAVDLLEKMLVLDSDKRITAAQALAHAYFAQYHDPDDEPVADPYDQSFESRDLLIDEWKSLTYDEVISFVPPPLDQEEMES
T3 sequence (P35968 with tags, fused parts or gaps DEL940-989/E990V): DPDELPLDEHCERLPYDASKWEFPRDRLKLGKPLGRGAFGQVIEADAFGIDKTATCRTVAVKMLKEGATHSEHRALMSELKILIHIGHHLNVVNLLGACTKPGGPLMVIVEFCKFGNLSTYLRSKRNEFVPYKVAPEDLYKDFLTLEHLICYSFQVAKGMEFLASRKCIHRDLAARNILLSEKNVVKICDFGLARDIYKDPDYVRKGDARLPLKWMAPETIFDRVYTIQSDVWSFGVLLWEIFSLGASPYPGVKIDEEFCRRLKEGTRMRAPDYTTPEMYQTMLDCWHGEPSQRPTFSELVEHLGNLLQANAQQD
Chain of p38 MAP kinase (Q16539 whole entry): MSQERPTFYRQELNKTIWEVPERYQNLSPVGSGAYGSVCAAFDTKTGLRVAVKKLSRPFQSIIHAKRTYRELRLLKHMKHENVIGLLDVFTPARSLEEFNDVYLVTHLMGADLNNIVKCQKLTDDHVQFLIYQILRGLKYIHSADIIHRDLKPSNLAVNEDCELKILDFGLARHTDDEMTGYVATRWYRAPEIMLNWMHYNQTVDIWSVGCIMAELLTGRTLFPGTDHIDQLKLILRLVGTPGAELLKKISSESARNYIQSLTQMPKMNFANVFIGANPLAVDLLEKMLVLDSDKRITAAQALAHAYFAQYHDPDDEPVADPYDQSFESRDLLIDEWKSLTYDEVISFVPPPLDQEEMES
T1 sequence (Q16539 whole entry): as above

Time-dependent [1]: No
Compound: CC1(C(=O)O)CC2(C)CC(C)(C1)C(=O)N(Cc1cccc(-n3nc(C(C)(C)C)cc3NC(=O)Nc3cccc4ccccc34)c1)C2=O (centres unmarked) [Example 11]

Time-dependent [1]: No
Compound: CC1(C(=O)O)CC2(C)CC(C)(C1)C(=O)N(Cc1cccc(-n3nc(C(C)(C)C)cc3NC(=O)Nc3ccc(Cl)cc3)c1)C2=O (centres unmarked) [Example 12]

Time-dependent [1]: Yes
Compound: CC(C)(C)c1cc(NC(=O)Nc2cccc3ccccc23)n(-c2cccc(CC(=O)N3CCOCC3)c2)n1 [Example 21, 1-{3-t-butyl-1-[3-(2-morpholino-2-oxoethyl)phenyl]-1H-pyrazol-5-yl}-3-(naphthalene-1-yl)urea]

Time-dependent [1]: No
Compound: CC(C)(C)c1cc(NC(=O)Nc2cccc3ccccc23)n(-c2ccc(CN)cc2)n1 [Example 45, 1-{3-t-butyl-1-[4-(aminomethyl)phenyl]-1H-pyrazol-5-yl}-3-(naphthalen-1-yl)urea]

IC50 [2]: 3.49 µM
Compound: CCOC(=O)Cc1cccc(-n2nc(C(C)(C)C)cc2NC(=O)Nc2ccc3c(c2)OCO3)c1 [Example 296, ethyl 2-(3-{5-[3-(benzo[d][1,3]dioxol-5-yl)ureido]-3-t-butyl-1H-pyrazol-1-yl}phenyl)-acetate]

IC50 [2]: 4.78 µM
Compound: CN(C)CCc1cccc(-n2nc(C(C)(C)C)cc2NC(=O)Nc2ccc3c(c2)OCO3)c1 [Example 300, 1-(benzo[d][1,3]dioxol-5-yl)-3-{3-t-butyl 1-(3-[2-(dimethylamino)ethyl]phenyl}-1H-pyrazol-5-yl)urea]

Compound: O=C(O)Cc1cccc(-n2nc(-c3ccsc3)cc2NC(=O)Nc2cccc(Cl)c2Cl)c1 [Example 436, 2-(3-(5-(3-(2,3-dichlorophenyl)ureido)-3-(thiophen-3-yl)-1H-pyrazol-1-yl)phenyl)acetic acid]
% @ concentration, uM ([3]; @ 0.1 uM): 16% | % @ concentration, uM ([3]; @ 1 uM): 41% | IC50 [4]: 0.007 µM | IC50 [5]: 3.7 µM

Compound: O=C(Cc1cccc(-n2nc(-c3ccccc3F)cc2NC(=O)Nc2cccc(Cl)c2Cl)c1)NCC(O)CO (centres unmarked) [Example 459, 1-(2,3-dichlorophenyl)-3-(1-(3-(2-(2,3-dihydroxypropylamino)-2-oxoethyl)phenyl)-3-(2-fluorophenyl)-1H-pyrazol-5-yl)urea]
IC50 [3]: 0.02 µM | IC50 [4]: 0.005 µM | inhibition at 10 µM [6]: 33% | inhibition at 10 µM [5]: 5%

Compound: O=C(Cc1ccc(-n2nc(-c3ccccc3F)cc2NC(=O)Nc2cccc(Cl)c2Cl)cc1)NCC(O)CO (centres unmarked) [Example 471, 1-(2,3-dichlorophenyl)-3-(1-(4-(2-(2,3-dihydroxypropylamino)-2-oxoethyl)phenyl)-3-(2-fluorophenyl)-1H-pyrazol-5-yl)urea]
IC50 [4]: 0.016 µM | inhibition at 10 µM [5]: 39% | inhibition at 1 µM [7]: 14%

Compound: O=C(Cc1ccc(-n2nc(-c3ccccc3F)cc2NC(=O)Nc2cccc(Cl)c2Cl)cc1)NC(CO)CO [Example 473, 1-(2,3-dichlorophenyl)-3-(1-(4-(2-(1,3-dihydroxypropan-2-ylamino)-2-oxoethyl)phenyl)-3-(2-fluorophenyl)-1H-pyrazol-5-yl)urea]
IC50 [3]: 0.004 µM | IC50 [4]: 0.03 µM | inhibition at 10 µM [5]: 4%

Compound: O=C(Cc1cccc(-n2nc(C3CCCC3)cc2NC(=O)Nc2cccc(Cl)c2Cl)c1)NCCO [Example 488, 1-(3-cyclopentyl-1-(3-(2-(2-hydroxyethylamino)-2-oxoethyl)phenyl)-1H-pyrazol-5-yl)-3-(2,3-dichlorophenyl)urea]
IC50 [3]: 0.54 µM | IC50 [4]: 0.007 µM | inhibition at 1 µM [5]: 21% | inhibition at 1 µM ([8]; read-out: Results, % @ concentration μM): 41%

Compound: CC(C)(C)c1cc(NC(=O)Nc2cccc(Oc3cccnc3)c2)n(-c2cccc(CC(N)=O)c2)n1 [Example 500, 1-(1-(3-(2-amino-2-oxoethyl)phenyl)-3-tert-butyl-1H-pyrazol-5-yl)-3-(3-(pyridin-3-yloxy)phenyl)urea]
IC50 [4]: 0.017 µM | IC50 [9]: 0.01 µM | IC50 [10]: 0.021 µM | IC50 [8]: 9 nM

Compound: NC(=O)Cc1cccc(-n2nc(C(F)(F)F)cc2NC(=O)Nc2cccc(Oc3cccnc3)c2)c1 [Example 503, 1-(1-(3-(2-amino-2-oxoethyl)phenyl)-3-(trifluoromethyl)-1H-pyrazol-5-yl)-3-(3-(pyridin-3-yloxy)phenyl)urea]
IC50 [9]: 0.13 µM | IC50 [10]: 0.29 µM | IC50 [8]: 190 nM

IC50 [3]: 0.024 µM | IC50 [9]: 1.7 µM | IC50 [10]: 0.25 µM | IC50 [8]: 14 nM
Compound: C=C1NS(=O)(=O)N(Cc2cccc(-n3nc(C(C)(C)C)cc3NC(=O)Nc3cccc(Cl)c3Cl)c2)C1=O [Example 511, 1-{5-t-butyl-2-[3-(4-methylene-1,1,3-trioxo-[1,2,5]thiadiazolidin-2-ylmethyl)-phenyl]-2H-pyrazol-3-yl}-3-(2,3-dichlorophenyl)-urea]

Compound: NC(=O)Cc1cccc(-n2nc(C3CCCC3)cc2NC(=O)Nc2ccc(-c3cccc4c3CNC4=O)cc2)c1 [Example 512, 1-(1-(3-(2-amino-2-oxoethyl)phenyl)-3-cyclopentyl-1H-pyrazol-5-yl)-3-(4-(1-oxoisoindolin-4-yl)phenyl)urea]
IC50 [3]: 0.032 µM | Results, % @ concentration μM [4]: 82% @1.0 | IC50 [10]: 0.11 µM | IC50 [8]: 29 nM

Compound: Cn1c(=O)c(-c2cccc(NC(=O)Nc3cc(C4CCCC4)nn3-c3cccc(CC(N)=O)c3)c2)cc2cncnc21 [Example 514, 1-(1-(3-(2-amino-2-oxoethyl)phenyl)-3-cyclopentyl-1H-pyrazol-5-yl)-3-(3-(8-methyl-7-oxo-7,8-dihydropyrido[2,3-d]pyrimidin-6-yl)phenyl)urea]
IC50 [3]: 0.57 µM | IC50 [4]: 0.011 µM | IC50 [10]: 0.077 µM | IC50 [8]: 33 nM

Compound: Cc1ccc(NC(=O)Nc2cc(C(C)(C)C)nn2-c2cccc(CC(N)=O)c2)cc1Nc1ncccn1 [Example 515, 1-(1-(3-(2-amino-2-oxoethyl)phenyl)-3-tert-butyl-1H-pyrazol-5-yl)-3-(4-methyl-3-(pyrimidin-2-ylamino)phenyl)urea]
Results, % @ concentration μM [4]: 90% @1.0 | inhibition at 1 µM [5]: 27%

IC50 [5]: 0.075 µM | IC50 [10]: 0.0022 µM
Compound: Cc1ccc(NC(=O)Nc2cc(C(C)(C)C)nn2-c2cccc(CC(=O)NCC(O)CO)c2)cc1Nc1nccc(-c2cccnc2)n1 (centres unmarked) [Example 517, 1-(3-tert-butyl-1-(3-(2-(2,3-dihydroxypropylamino)-2-oxoethyl)phenyl)-1H-pyrazol-5-yl)-3-(4-methyl-3-(4-(pyridin-3-yl)pyrimidin-2-ylamino)phenyl)urea]
